Data set [1] has as its system MDA-MB-175VII cells (DOC4-NRG1 fusion). Nature of the data set: growth inhibitory effect in NRG1 fusion-driven cancer cell line (GI50). In kind it is cell-based. The note with it: Homo sapiens, mean of 3-4 independent experiments. Here is the method: GI50 values were also determined for currently approved EGFR/HER2 tyrosine kinase inhibitors: afatinib, osimertinib, tucatinib, lapatinib, and neratinib, and one investigational drug (poziotinib). Mean values were determined from 3-4 independent experiments.

For the next data set, the system named is SK-BR-3 cells. Nature of the data set: feedback activation of HER3, downstream targets and apoptosis markers in SK-BR-3 cells. In kind it is cell-based, human. The note with it: for phosphorylation of HER2, HER3, and their downstream targets: 3 hours; for phosphorylation of HER2, HER3, and their downstream targets / BIM and cleaved PARP: 30 to 300 nmol/L; for phosphorylation of HER2, HER3, and their downstream targets (AKT and ERK) / BIM and cleaved PARP: 48 hours. From the text:
The effect of Compound (1) on feedback activation of HER3, its downstream targets (ERK and AKT), and apoptosis markers (BIM and cleaved PARP) in SK-BR-3 cells was investigated. In addition, the same information for lapatinib and tucatinib (a reversible inhibitor of HER2) was obtained.

Data set [2] concerns NCI-N87 human gastric carcinoma (HER2 overexpressing) xenografts. Nature of the data set: refractory T-mab/P-mab model Step I. It is filed as in vivo, male nude mice (BALB/cAJcl-mu/mu).
Procedure: Male nude mice (BALB/cAJcl-mu/mu) were implanted with NCI-N87 human gastric carcinoma (HER2 overexpressing); 1.0×10^7 cells in 100 μL of PBS were implanted subcutaneously per mouse.
Data set [3] deals with NCI-N87 human gastric carcinoma xenografts. The experiment in a line: antitumor effect in nude mice bearing NCI-N87 xenografts. The conditions noted are these: Day 15. It is filed as in vivo. Here is the method:
The antitumor effect of Compound (1) was evaluated in nude mice bearing HER2-overexpressing NCI-N87 human gastric carcinoma xenografts. Compound (1) dosing suspensions using 0.5% w/v hydroxypropyl methylcellulose (HPMC) as vehicle were prepared at 4 dose levels (3.1, 6.3, 12.5, and 25.0 mg/kg/day) and administered orally once daily for 14 days. In addition, the antitumor effect of poziotinib, which is a pan-ErbB inhibitor and currently under clinical development for the treatment of cancer with epidermal growth factor receptor containing HER2 exon 20 insertion mutations, was also evaluated using this model. Poziotinib was administered orally once daily for 14 days at 2 dose levels (0.5 or 1.0 mg/kg/day). The control group received 0.5% w/v HPMC once daily for 14 days.

Data set [4] concerns MCF10A_HER2/insYVMA_v human mammary epithelial xenografts. The experiment in a line: antitumor effect in nude mice bearing MCF10A_HER2/insYVMA_v xenografts. It is filed as in vivo. The conditions noted are these: Day 15. On the procedure:
The antitumor effect of Compound (1) was evaluated in a nude mouse xenograft model of MCF10A_HER2/insYVMA_v. MCF10A_HER2/insYVMA_v was established as stably growing cells in vivo derived from MCF10A HER2/insYVMA (a human mammary epithelial cell line engineered to express the HER2 exon 20 insertion mutation A775_G776insYVMA) xenografts subcutaneously transplanted into nude mice. Compound (1) suspensions (using 0.5% w/v HPMC as vehicle) were administered orally once daily to mice at doses of 7.8, 12.5, or 20.0 mg/kg/day for 14 days. The control group received 0.5% weight per volume (w/v) hydroxypropyl methylcellulose (HPMC) solution orally once daily for 14 days.
In addition, the antitumor effect of poziotinib (an irreversible inhibitor of EGFR, HER2, and HER4) was also evaluated using this model.

Data set [5] deals with intracranial NCI-N87-luc human gastric carcinoma xenografts. Nature of the data set: intracranial antitumor effect, NCI-N87-luc xenografts. It is filed as in vivo, nude mice. The conditions noted are these: Day 22. Here is the method: The intracranial antitumor effect of Compound (1) was evaluated using Compound (1) in nude mice intracranially implanted with NCI-N87-luc cells, which were engineered to stably express the luciferase gene using the HER2-overexpressing NCI-N87 human gastric carcinoma cell line. Compound (1) dosing suspensions using 0.5% w/v HPMC as vehicle were prepared with Compound (1) at 3 dose levels (16.0, 20.0, or 25.0 mg/kg/day) and administered PO QD for 21 days. The control group received 0.5% weight per volume (w/v) hydroxypropyl methylcellulose (HPMC) solution orally once daily for 21 days. The antitumor effect of poziotinib was also evaluated using this model. Poziotinib was administered PO QD for 21 days at 2 dose levels (0.5 or 1.0 mg/kg/day).

For data set [6], the system named is NCI-N87 xenografts relapsed from T-DM1. The conditions noted are these: 10 mg/kg/day iv Day 1. On the procedure: Male nude mice (BALB/cAJ1-mu/mu) were implanted with NCI-N87 human gastric carcinoma (HER2 overexpressing); 1.0×10^7 cells in 100 μL of PBS were implanted subcutaneously per mouse.
PO; or treated with an oral suspension of Compound (1) once per day at a dosage of 25 mg/kg/day, PO. The tumor volumes (TV, mm^3) and body weights of the mice were recorded.

The subject of data set [7] is NCI-N87 tumor fragment #6, clone 3. Nature of the data set: refractory T-DM1 monoclonal cell line model, comparison to DS-8201a. In kind it is in vivo, male mice. The note with it: single iv dose of 10 mg/kg T-DM1. Here is the method:
The obtained cell line was implanted into BALB/cAJcl-mu/nu male mice (8.0×10^6 cells in 100 μL of PBS/mouse, subcutaneous) for the efficacy test.
The tumor volumes (TV, mm) and body weights of the mice were recorded.

Where [8] appears, read: Step I Day 22, 20 mg/kg/day (each) ip Days 1, 8, 15.

As a reminder, the GI50 is the concentration that inhibits growth by half. `CCOc1cc2ncc(C#N)c(Nc3ccc(OCc4ccccn4)c(Cl)c3)c2cc1NC(=O)/C=C/CN(C)C` [neratinib] registered a GI50 in data set [1] of 3 ± 0.6 nM.
In data set [1], `CS(=O)(=O)CCNCc1ccc(-c2ccc3ncnc(Nc4ccc(OCc5cccc(F)c5)c(Cl)c4)c3c2)o1` [lapatinib] returned a GI50 of 89.5 ± 39.5 nM. For the same molecule, in the data set on SK-BR-3 cells, the “phosphorylation of HER2, HER3, and their downstream targets” value was “inhibited the phosphorylation”; the “phosphorylation of HER2, HER3, and their downstream targets (AKT and ERK)” value is listed as “increased again”; the “BIM and cleaved PARP” value is “increased”.
As for `CN(C)C/C=C/C(=O)Nc1cc2c(Nc3ccc(F)c(Cl)c3)ncnc2cc1O[C@H]1CCOC1` [afatinib], in data set [1], the GI50 worked out at 5.6 ± 2.7 nM.
As usually defined, the T/C is the ratio of treated to control. Consider pertuzumab [P-mab], for which the “RTV (mean ± SE)” value in data set [2] (Day 22 to Day 0 (Step I), 20 mg/kg/day (each) ip Days 1, 8, 15) was 4.0. This molecule also showed a T/C in data set [2] (Step I Day 22, vs non-treatment control, 20 mg/kg/day (each) ip Days 1, 8, 15) of 76.5%. Further, in data set [2] (setting [8]), the “Number of Death” value was 0 and the “TV (mean ± SE)” value is 1233.1 mm^3. In data set [2] (mouse, in vivo, ip, 20 mg/kg/day), the “BWC (mean ± SE)” value is 10.20%.
Regarding `C=CC(=O)N1CCC(Oc2cc3c(Nc4ccc(Cl)c(Cl)c4F)ncnc3cc2OC)CC1` [poziotinib, reference compound], the “T/C ratio of the mean tumor volumes” value came to 44.2% in data set [3] (0.5 mg/kg/day orally once daily 14 days) and 8.8% in data set [3] (1.0 mg/kg/day orally once daily 14 days). In data set [1], this molecule showed a GI50 of 0.3 ± 0.2 nM. Besides, the “T/C ratio of the mean tumor volume” value in data set [4] (0.5 mg/kg/day) amounted to 29.0%; in data set [4] (1.0 mg/kg/day), 8.3%. Further, the “T/C ratio of the mean total flux” value in data set [5] (0.5 mg/kg/day PO QD 21 days) was determined as 39.0%; in data set [5] (1.0 mg/kg/day PO QD 21 days) it was 21.1%. Moreover, the figures for the “mean body weight change (BWC)” value in data set [5] (0.5 mg/kg/day) and in data set [5] (1.0 mg/kg/day) were 2.5% and −0.3%, respectively.
For the molecule `C=CC(=O)Nc1cc(Nc2nccc(-c3cn(C)c4ccccc34)n2)c(OC)cc1N(C)CCN(C)C` [osimertinib], in data set [1], growth was halved (GI50) at 29.4 ± 1.5 nM.
As to trastuzumab emtansine [T-DM1], the “RTV (mean ± SE)” value in data set [6] (Day 22 to Day 1 (Step II)) was determined as 1.73. Also, the “TV (mean ± SE)” value in data set [6] (Step II Day 22) is 595.1 mm^3. The molecule further gave a T/C in data set [6] (Step II Day 22, reference group) of 100.0%. For the same molecule, the “antitumor effect (tumor volume)” value in data set [7] is on record as “failing to inhibit tumor growth”.
The molecule `Cc1cc(Nc2ncnc3ccc(NC4=NC(C)(C)CO4)cc23)ccc1Oc1ccn2ncnc2c1` [tucatinib] returned a GI50 in data set [1] of 27.6 ± 5.5 nM. Besides, in the data set with SK-BR-3 cells, the “phosphorylation of HER2, HER3, and their downstream targets” value is “inhibited the phosphorylation”; the “phosphorylation of HER2, HER3, and their downstream targets (AKT and ERK)” value is given as “increased again”; the “BIM and cleaved PARP” value is recorded as “increased”.

(Values after patent US20240238300A1, “TREATMENT METHODS FOR SUBJECTS WITH CANCER HAVING AN ABERRATION IN EGFR AND/OR HER2” (TAIHO PHARMACEUTICAL CO., LTD., priority 2021, published 2024).)
